Columns and labels:
Assay type in all cases: in vivo
[1] = test system: ivy-leaved morning glory (Ipomoea hederacea); assay: Test G Post-Emergence Protocol; conditions: Ipomoea, post-emergence, 312 h, read-out: Morningglory, Ivy-leaved damage rating; for pest or weed control at 15.625 g/ha: 15.625 g ai/ha, evaluated after 13 days (100=total damage to plant; 0=no damage to plant); for pest or weed control at 62.5 g/ha: 62.5 g ai/ha; for pest or weed control at 62.5 g/ha / pest or weed control at 250 g/ha: evaluated after 13 days, 100=total damage to plant, 0=no damage to plant; for pest or weed control at 250 g/ha: 250 g ai/ha
How it was run: (§1)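 Values are percent visual injury at 13 days after treatment (0 none, 100 total). Treatment was a post-emergence spray at 15.625, 62.5 or 250 g/ha on 8-day-old pot plants kept at 24/16 °C.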

corn (Zea mays) [2] = assay: Test G Post-Emergence Protocol; conditions: Zea mays, post-emergence, 312 h, read-out: Corn damage rating; for plant injury at 15.625 g/ha: 15.625 g ai/ha, evaluated after 13 days (100=total damage to plant; 0=no damage to plant); for plant injury at 62.5 g/ha: 62.5 g ai/ha; for plant injury at 62.5 g/ha / plant injury at 250 g/ha: evaluated after 13 days, 100=total damage to plant, 0=no damage to plant; for plant injury at 250 g/ha: 250 g ai/ha
How it was run: as §1

[3] = test system: velvetleaf (Abutilon theophrasti); assay: Test G Post-Emergence Protocol; conditions: Abutilon theophrasti, post-emergence, 312 h, read-out: Velvetleaf damage rating; for pest or weed control at 15.625 g/ha: 15.625 g ai/ha, evaluated after 13 days (100=total damage to plant; 0=no damage to plant); for pest or weed control at 62.5 g/ha: 62.5 g ai/ha; for pest or weed control at 62.5 g/ha / pest or weed control at 250 g/ha: evaluated after 13 days, 100=total damage to plant, 0=no damage to plant; for pest or weed control at 250 g/ha: 250 g ai/ha
How it was run: as §1

[4] = test system: barnyardgrass (Echinochloa crus-galli); assay: Test G Post-Emergence Protocol; conditions: Echinochloa crus-galli, post-emergence, 312 h, read-out: Barnyardgrass damage rating; for pest or weed control at 15.625 g/ha: 15.625 g ai/ha, evaluated after 13 days (100=total damage to plant; 0=no damage to plant); for pest or weed control at 62.5 g/ha: 62.5 g ai/ha; for pest or weed control at 62.5 g/ha / pest or weed control at 250 g/ha: evaluated after 13 days, 100=total damage to plant, 0=no damage to plant; for pest or weed control at 250 g/ha: 250 g ai/ha
How it was run: as §1

[5] = test system: redroot pigweed (Amaranthus retroflexus); assay: Test G Post-Emergence Protocol; conditions: Amaranthus retroflexus, post-emergence, 312 h, read-out: Pigweed, Redroot damage rating; for pest or weed control at 15.625 g/ha: 15.625 g ai/ha, evaluated after 13 days (100=total damage to plant; 0=no damage to plant); for pest or weed control at 62.5 g/ha: 62.5 g ai/ha; for pest or weed control at 62.5 g/ha / pest or weed control at 250 g/ha: evaluated after 13 days, 100=total damage to plant, 0=no damage to plant; for pest or weed control at 250 g/ha: 250 g ai/ha
How it was run: as §1

[6] = test system: giant foxtail (Setaria faberi); assay: Test G Post-Emergence Protocol; conditions: Setaria faberi, post-emergence, 312 h, read-out: Foxtail, Giant damage rating; for pest or weed control at 15.625 g/ha: 15.625 g ai/ha, evaluated after 13 days (100=total damage to plant; 0=no damage to plant); for pest or weed control at 62.5 g/ha: 62.5 g ai/ha; for pest or weed control at 62.5 g/ha / pest or weed control at 250 g/ha: evaluated after 13 days, 100=total damage to plant, 0=no damage to plant; for pest or weed control at 250 g/ha: 250 g ai/ha
How it was run: as §1

[7] = test system: ivy-leaved morning glory (Ipomoea hederacea); assay: Test G Pre-Emergence Protocol; conditions: Ipomoea, pre-emergence, 312 h, evaluated after 13 days; for pest or weed control at 15.625 g/ha: 15.625 g ai/ha; for pest or weed control at 15.625 g/ha / pest or weed control at 250 g/ha: read-out: Morningglory, Ivy-leaved damage rating (100=total damage to plant; 0=no damage to plant); for pest or weed control at 62.5 g/ha: 62.5 g ai/ha, 100=total damage to plant, 0=no damage to plant, read-out: Morningglory, Ivy-leaved damage rating; for pest or weed control at 250 g/ha: 250 g ai/ha
How it was run: (§2)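 One day after sowing, pots are treated with a spray of test compound formulated in acetone/water 50:50 plus 0.5% Tween 20, giving 15.625, 62.5 or 250 g/ha. Evaluation on a 0–100 damage scale follows 13 days of glasshouse growth.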

corn (Zea mays) [8] = assay: Test G Pre-Emergence Protocol; conditions: Zea mays, pre-emergence, 312 h, evaluated after 13 days; for plant injury at 15.625 g/ha: 15.625 g ai/ha; for plant injury at 15.625 g/ha / plant injury at 250 g/ha: read-out: Corn damage rating (100=total damage to plant; 0=no damage to plant); for plant injury at 62.5 g/ha: 62.5 g ai/ha, 100=total damage to plant, 0=no damage to plant, read-out: Corn damage rating; for plant injury at 250 g/ha: 250 g ai/ha
How it was run: as §2

[9] = test system: velvetleaf (Abutilon theophrasti); assay: Test G Pre-Emergence Protocol; conditions: Abutilon theophrasti, pre-emergence, 312 h, evaluated after 13 days; for pest or weed control at 15.625 g/ha: 15.625 g ai/ha; for pest or weed control at 15.625 g/ha / pest or weed control at 250 g/ha: read-out: Velvetleaf damage rating (100=total damage to plant; 0=no damage to plant); for pest or weed control at 62.5 g/ha: 62.5 g ai/ha, 100=total damage to plant, 0=no damage to plant, read-out: Velvetleaf damage rating; for pest or weed control at 250 g/ha: 250 g ai/ha
How it was run: as §2

[10] = test system: barnyardgrass (Echinochloa crus-galli); assay: Test G Pre-Emergence Protocol; conditions: Echinochloa crus-galli, pre-emergence, 312 h, evaluated after 13 days; for pest or weed control at 15.625 g/ha: 15.625 g ai/ha; for pest or weed control at 15.625 g/ha / pest or weed control at 250 g/ha: read-out: Barnyardgrass damage rating (100=total damage to plant; 0=no damage to plant); for pest or weed control at 62.5 g/ha: 62.5 g ai/ha, 100=total damage to plant, 0=no damage to plant, read-out: Barnyardgrass damage rating; for pest or weed control at 250 g/ha: 250 g ai/ha
How it was run: as §2

[11] = test system: redroot pigweed (Amaranthus retroflexus); assay: Test G Pre-Emergence Protocol; conditions: Amaranthus retroflexus, pre-emergence, 312 h, evaluated after 13 days; for pest or weed control at 15.625 g/ha: 15.625 g ai/ha; for pest or weed control at 15.625 g/ha / pest or weed control at 250 g/ha: read-out: Pigweed, Redroot damage rating (100=total damage to plant; 0=no damage to plant); for pest or weed control at 62.5 g/ha: 62.5 g ai/ha, 100=total damage to plant, 0=no damage to plant, read-out: Pigweed, Redroot damage rating; for pest or weed control at 250 g/ha: 250 g ai/ha
How it was run: as §2

[12] = test system: giant foxtail (Setaria faberi); assay: Test G Pre-Emergence Protocol; conditions: Setaria faberi, pre-emergence, 312 h, evaluated after 13 days; for pest or weed control at 15.625 g/ha: 15.625 g ai/ha; for pest or weed control at 15.625 g/ha / pest or weed control at 250 g/ha: read-out: Foxtail, Giant damage rating (100=total damage to plant; 0=no damage to plant); for pest or weed control at 62.5 g/ha: 62.5 g ai/ha, 100=total damage to plant, 0=no damage to plant, read-out: Foxtail, Giant damage rating; for pest or weed control at 250 g/ha: 250 g ai/ha
How it was run: as §2

Structure (SMILES)	pest or weed control at 15.625 g/ha [1] [%]	pest or weed control at 62.5 g/ha [1] [%]	pest or weed control at 250 g/ha [1] [%]	plant injury at 15.625 g/ha (corn (Zea mays) [2]) [%]	plant injury at 62.5 g/ha (corn (Zea mays) [2]) [%]	plant injury at 250 g/ha (corn (Zea mays) [2]) [%]	pest or weed control at 15.625 g/ha [3] [%]	pest or weed control at 62.5 g/ha [3] [%]	pest or weed control at 250 g/ha [3] [%]	pest or weed control at 15.625 g/ha [4] [%]	pest or weed control at 62.5 g/ha [4] [%]	pest or weed control at 250 g/ha [4] [%]	pest or weed control at 15.625 g/ha [5] [%]	pest or weed control at 62.5 g/ha [5] [%]	pest or weed control at 250 g/ha [5] [%]	pest or weed control at 15.625 g/ha [6] [%]	pest or weed control at 62.5 g/ha [6] [%]	pest or weed control at 250 g/ha [6] [%]	pest or weed control at 15.625 g/ha [7] [%]	pest or weed control at 62.5 g/ha [7] [%]	further results
CC1OC(=O)c2c(NC(=O)[C@H]3C(=O)N(C)C[C@@H]3c3ccc(C(F)(F)F)cc3)cccc21 (mixture of isomers) [Compound 1670]	0	0	0	0	0	10	0	0	0	0	20	60	0	20	90	0	70	80	0	0	pest or weed control at 250 g/ha [7]: 0%; plant injury at 15.625 g/ha (corn (Zea mays) [8]): 0%; plant injury at 62.5 g/ha (corn (Zea mays) [8]): 0%; plant injury at 250 g/ha (corn (Zea mays) [8]): 0%; pest or weed control at 15.625 g/ha [9]: 0%; pest or weed control at 62.5 g/ha [9]: 0%; pest or weed control at 250 g/ha [9]: 0%; pest or weed control at 15.625 g/ha [10]: 0%; pest or weed control at 62.5 g/ha [10]: 0%; pest or weed control at 250 g/ha [10]: 0%; pest or weed control at 15.625 g/ha [11]: 0%; pest or weed control at 62.5 g/ha [11]: 0%; pest or weed control at 250 g/ha [11]: 20%; pest or weed control at 15.625 g/ha [12]: 0%; pest or weed control at 62.5 g/ha [12]: 20%; pest or weed control at 250 g/ha [12]: 50%
Cc1c(F)cccc1NC(=O)[C@@H]1C(=O)N(C)C[C@H]1c1cccc(C(C)(C)F)c1 (racemic) [Compound 1827]	0	10	10	0	10	60	0	0	40	0	70	80	0	0	0	50	80	80	0	0	pest or weed control at 250 g/ha [7]: 20%; plant injury at 15.625 g/ha (corn (Zea mays) [8]): 0%; plant injury at 62.5 g/ha (corn (Zea mays) [8]): 0%; plant injury at 250 g/ha (corn (Zea mays) [8]): 50%; pest or weed control at 15.625 g/ha [9]: 0%; pest or weed control at 62.5 g/ha [9]: 0%; pest or weed control at 250 g/ha [9]: 10%; pest or weed control at 15.625 g/ha [10]: 0%; pest or weed control at 62.5 g/ha [10]: 80%; pest or weed control at 250 g/ha [10]: 90%; pest or weed control at 15.625 g/ha [11]: 0%; pest or weed control at 62.5 g/ha [11]: 0%; pest or weed control at 250 g/ha [11]: 0%; pest or weed control at 15.625 g/ha [12]: 40%; pest or weed control at 62.5 g/ha [12]: 90%; pest or weed control at 250 g/ha [12]: 90%
Cc1c(F)cccc1NC(=O)[C@@H]1C(=O)N(C)C[C@H]1c1ccnc(OCC(F)(F)F)c1 (racemic) [Compound 1802]	0	0	0	0	0	60	0	40	70	0	60	70	0	0	40	40	70	80	0	0	pest or weed control at 250 g/ha [7]: 40%; plant injury at 15.625 g/ha (corn (Zea mays) [8]): 0%; plant injury at 62.5 g/ha (corn (Zea mays) [8]): 0%; plant injury at 250 g/ha (corn (Zea mays) [8]): 70%; pest or weed control at 15.625 g/ha [9]: 0%; pest or weed control at 62.5 g/ha [9]: 20%; pest or weed control at 250 g/ha [9]: 70%; pest or weed control at 15.625 g/ha [10]: 10%; pest or weed control at 62.5 g/ha [10]: 70%; pest or weed control at 250 g/ha [10]: 90%; pest or weed control at 15.625 g/ha [11]: 0%; pest or weed control at 62.5 g/ha [11]: 10%; pest or weed control at 250 g/ha [11]: 30%; pest or weed control at 15.625 g/ha [12]: 70%; pest or weed control at 62.5 g/ha [12]: 90%; pest or weed control at 250 g/ha [12]: 90%
